Read-outs that look alike come from different tables or passages of the source.
Key:
PC12 cells = test: Cytotoxicity in PC12 cells (MTT assay); format: cell-based; conditions: 1–80 µM, 24 h
Procedure: PC12 cells were purchased from the NanJing KeyGen Biotech Co. Ltd. (Nanjing, China). These cells were cultivated in high-glucose DMEM supplemented with 10% FBS, 100 U/mL of penicillin and 100 µg/mL of streptomycin at 37 °C under a humidified 5% CO2 atmosphere. Baicalein was dissolved in DMSO to prepare a 5 mM stock solution and diluted with serum-free media before use. PC12 cells were seeded into a 96-well plate at the density of 2 × 10 ^4 cells/well (100 μL) and cultured for 24 h. Next, the medium was changed, and the cells were treated with baicalein at 0, 1, 10, 20, 40, and 80 µM. Each concentration had six replicate wells, and the culture was continued for 24 h. To determine the effect of baicalein on cell viability, 20 µL of MTT (5 mg/mL) was added to each well. After 4 h, the resulting formazan crystals were dissolved by adding 150 μL of DMSO for 10–15 min. The absorption (O.D.) of each hole at 570 nm wavelength was measured using an enzyme-labelled instrument (Varioskan LUX; Thermo Fisher Scientific, Waltham, MA, USA). Cell viability was expressed as the percentage of the control.

AChE [1] = target: T1, AChE (Electrophorus electricus, UniProt O42275); test: AChE activity assay (Ellman's method, modified); format: biochemical
T1 construct: purchased Sigma-Aldrich Co. (St. Louis, MO, USA)
T1 sequence (O42275 24-633): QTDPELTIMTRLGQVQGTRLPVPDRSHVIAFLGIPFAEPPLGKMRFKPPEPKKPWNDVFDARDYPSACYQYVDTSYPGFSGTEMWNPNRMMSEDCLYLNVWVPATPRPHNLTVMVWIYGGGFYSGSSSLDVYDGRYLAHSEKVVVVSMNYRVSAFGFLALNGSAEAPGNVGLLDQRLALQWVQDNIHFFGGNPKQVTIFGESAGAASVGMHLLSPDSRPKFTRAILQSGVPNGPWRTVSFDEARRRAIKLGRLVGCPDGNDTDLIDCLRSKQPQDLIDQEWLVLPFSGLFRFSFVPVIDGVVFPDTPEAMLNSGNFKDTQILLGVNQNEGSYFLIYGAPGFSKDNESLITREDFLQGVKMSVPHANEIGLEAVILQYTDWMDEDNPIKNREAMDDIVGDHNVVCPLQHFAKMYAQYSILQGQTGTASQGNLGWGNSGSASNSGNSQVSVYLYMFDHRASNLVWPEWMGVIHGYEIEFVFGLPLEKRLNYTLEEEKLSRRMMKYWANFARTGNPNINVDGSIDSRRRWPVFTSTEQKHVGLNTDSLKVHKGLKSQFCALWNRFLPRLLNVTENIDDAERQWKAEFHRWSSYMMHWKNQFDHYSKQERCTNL
Procedure: AChE (137 U/mg, Electrophorus electricus) was provided by Sigma-Aldrich Co. (St. Louis, MO, USA), and their stock solutions with 10 U/mL concentrations were prepared with 0.1 M phosphate-buffered saline (pH 7.6) and stored at −20 °C. Baicalein (purity ≥ 98%) was obtained from the National Institute for the Control of Pharmaceutical and Biological Products (Beijing, China) and dissolved in ethanol to prepare the stock solution (5 mM). 5,5-Dithiobis-(2-nitrobenzoic acid) (DTNB), acetylthiocholine iodide (ATCI), galathamine hydrobromide, and 3-(4, 5-dimethylthiazol-2-yl)-2,5-diphenyltetrazolium bromide (MTT) were provided by Aladdin Chemistry Co., Ltd. (Shanghai, China). Foetal bovine serum (FBS) was purchased from Gibco (Carlsbad, CA, USA). Dulbecco’s modified Eagle’s medium (DMEM), trypsin, and other cell culture reagents were purchased from Solarbio (Beijing, China). All remaining reagents were of analytical grade.
AChE activity was evaluated per Ellman’s method, albeit with a slight modification. Quartz cuvettes (3 mL) were utilised for measuring the assay mixture activity. Solutions containing varying amounts of baicalein, phosphate-buffered saline (0.1 M, pH 7.6), and 50 µL of AChE (2 U/mL, 3.4 × 10^−8 M) were cultivated in 30 min at 25 °C. After the pre-incubation period, 50 μL of 5, 5-dithiobis-(2-nitrobenzoic) acid (DNTB, 5 mM) was added. The reaction was then initiated with 50 μL of acetylthiocholine iodide (ATCI, 15 mM). The absorbance at 412 nm was monitored every 5 s with the TU−1901 dual-beam UV–Vis Spectrophotometer (Persee; Beijing, China). The samples were measured thrice, and the average value was considered. Enzyme activity without baicalein was identified to be 100%. […] Galantamine hydrobromide served as the positive control.

AChE [2] = target: T1, AChE; test: Fluorescence quenching and synchronous fluorescence of AChE; format: binding
Procedure: A spectrofluorometer (model F-7000; Hitachi, Tokyo, Japan) containing a thermostat bath was used to measure the fluorescence spectra. The AChE solution (2.5 mL; 0.17 µM) was introduced into a 1.0 cm path length quartz cell, followed by titration through the successive addition of 2.0 mM of diluted baicalein solution (to obtain the concentration range of 0–16 µM). The well-mixed solutions were set aside for three min for equilibration purposes. The fluorescence spectra were measured in the 290–450 nm range, and the relevant excitation wavelength set was 280 nm at 25 °C, 31°C, and 37 °C. Excitation and emission bandwidths were 2.5 nm. In addition, synchronous fluorescence spectra for AChE with baicalein were conducted by fixing the interval of excitation and emission wavelength constants at 15 nm and 60 nm. Fluorescence data were amended according to our previous reports to erase the re-absorption possibility and the inner filter effects of UV absorption.
The binding constant (Ka) for the AChE–bacalein complex and the binding site number (n) were measured using Equation (3):(3) logF0−F/F=nlogKa−nlog1/(Qt)−(F0−F)(Pt)/F0
In general, four noncovalent interaction forces exist between small molecules and macromolecules, namely hydrogen bonds, van der Waals forces, electrostatic forces, and hydrophobic interactions. To identify the binding forces between bacalein and AChE, the thermodynamic parameters were measured following the Van’t Hoff equation:(4) logKa=−ΔH°/2.303RT+ΔS°/2.303R (5) ΔG°=ΔH°−TΔS° where Ka denotes the binding constant, and R represents the gas constant (8.314 J mol^−1 K^−1). The temperatures (T) used were 25 °C, 31 °C, and 37 °C.

AChE [3] = target: T1, AChE; test: Kinetic analysis of the inhibitory type (Lineweaver–Burk plots, v vs. AChE plots); format: biochemical
Description: The Lineweaver–Burk plots and Michaelis–Menten enzyme kinetics were applied to analyse the inhibitory type. For competitive type inhibition, the dynamic double reciprocal equation was used as follows:(1) 1/v=Km/vmax(1+(I) /Ki)1/(S)+1/vmax (2) Kmapp=Km(I)/Ki+Km where (I) and (S) denote the inhibitor and substrate concentrations, respectively; ν represents the enzyme reaction rate irrespective of the presence of baicalein; νmax is the maximum catalytic reaction rate; Ki, Km, and Kmapp stand for the inhibition constant, Michaelis−Menten constant, and apparent Michaelis constant, respectively.

AChE [4] = target: T1, AChE; test: Time-course test of AChE inactivation kinetics; format: biochemical
Procedure: The kinetic process and rate constants for enzyme inactivation were determined through the time-course test. Baicalein with concentrations of 2, 4, 8, and 16 µM was used for analysing the time-course. Enzyme activity at each concentration was measured every 3 min for 0–30 min, every 6 min for 30–60 min, and then at 70 and 80 min.

AChE [5] = target: T1, AChE; test: Far-UV CD spectra, secondary structure of AChE; conditions: c(AChE) = 0.75 µM
Procedure: Far-UV CD spectra were measured using a spectrometer (MOS 450 CD; Bio-Logic, Claix, France) with a 1.0 mm path length quartz cuvette. All the spectra were measured in the 200–240 nm range at 25 °C, and the associated scan speed was 60 nm min^−1. The AChE in the PBS was completely blended with baicalein at varying concentrations and then equilibrated for three min before CD measurements. The spectra were amended by subtracting the spectrum of the buffer with that of baicalein at the same concentration as the sample solution. Three scans were conducted, and the ellipticity in millidegrees indicated the results. The contents of the discrepant secondary structures (α-helix, β-sheet, β-turn, and random coil) from AChE were measured based on CD spectroscopic data following the online SELCON3 program (http://dichroweb.cryst.bbk.ac.uk/html/home.shtml. Accessed on: 18 August 2021).

[6] = Van't Hoff equation, 25, 31, 37 °C

With `O=c1cc(-c2ccccc2)oc2cc(O)c(O)c(O)c12` [baicalein, 5,6,7-trihydroxyflavone] the “cytotoxicity (cell viability, MTT)” value (PC12 cells) was “nontoxic”, the IC50 (AChE [1]) was 6.42 ± 0.07 µM and the inhibition at 26.7 µM (AChE [1]; read-out: final inhibition rate of AChE activity) was 90%. The “bimolecular quenching constant Kq, magnitude order” value (AChE [2]; 25-37 °C) was ~10^13 L mol^−1 s^−1, the Kd (AChE [2]; 25-37 °C, read-out: binding constant, order of magnitude) was roughly 100 µM and the “binding site number n” value (AChE [2]; 25 °C) was 0.88 ± 0.01. The “quenching constant KSV” value (AChE [2]; 25 °C) was 6.45 ± 0.02 ×10^4 L mol^−1, the “∆G°” value (AChE [2]; 25 °C) was -5.428 ± 0.014 kcal/mol and the Kd (AChE [2]; 25 °C, read-out: binding constant Ka (converted)) was 15 µM. For the same molecule, the “binding site number n” value (AChE [2]; 31 °C) was 0.93 ± 0.03, the “quenching constant KSV” value (AChE [2]; 31 °C) was 5.78± 0.03 ×10^4 L mol^−1 and the “∆G°” value (AChE [2]; 31 °C) was -5.457 ± 0.0072 kcal/mol. The Kd (AChE [2]; 31 °C, read-out: binding constant Ka (converted)) was 17.1 µM, the “binding site number n” value (AChE [2]; 37 °C) was 1.13 ± 0.02 and the “quenching constant KSV” value (AChE [2]; 37 °C) was 5.22± 0.07 ×10^4 L mol^−1. For the same molecule, the “∆G°” value (AChE [2]; 37 °C) was -5.483 ± 0.019 kcal/mol, the Kd (AChE [2]; 37 °C, read-out: binding constant Ka (converted)) was 19.6 µM and the “∆H°” value (AChE [2]; [6]) was -4.065 ± 0.0048 kcal/mol. The “∆S°” value (AChE [2]; [6]) was 19.15 ± 0.09 J mol^−1 K^−1, the “synchronous fluorescence quenching ratio RSFQ, Tyr residues” value (AChE [2]; Δλ = 15 nm, baicalein up to 16.0 μM, c(AChE) = 0.17 µM) was 58.48% and the “synchronous fluorescence quenching ratio RSFQ, Trp residues” value (AChE [2]; Δλ = 60 nm, baicalein up to 16.0 μM, c(AChE) = 0.17 µM) was 63.83%. For the same molecule, the Ki (AChE [3]; Lineweaver–Burk, baicalein 0, 4, 8, 10 µM, c(AChE) = 0.57 nM, read-out: Ki (inhibition constant)) was 4.32 ± 0.26 µM, the inhibition type (AChE [3]; double reciprocal plots intersect on the Y axis) was “competitive” and the inhibition reversibility (AChE [3]; plots of v vs. AChE concentration, baicalein 0-16 µM) was “reversible”. For the same molecule, the “Inactivation rate constant k” value (AChE [4]; baicalein 2 µM) was 1.48 ± 0.03 ×10^−4 s^−1, the “Inactivation rate constant k” value (AChE [4]; baicalein 4 µM) was 2.42 ± 0.05 ×10^−4 s^−1 and the “Inactivation rate constant k” value (AChE [4]; baicalein 8 µM) was 4.01 ± 0.02 ×10^−4 s^−1. For the same molecule, the “Inactivation rate constant k” value (AChE [4]; baicalein 16 µM) was 5.18 ± 0.08 ×10^−4 s^−1, the “Random coil content of AChE” value (AChE [5]; molar ratio baicalein:AChE 2:1) was 25.36 ± 0.29% and the “α-Helix content of AChE” value (AChE [5]; molar ratio baicalein:AChE 2:1) was 38.82 ± 0.08%. The “β-Sheet content of AChE” value (AChE [5]; molar ratio baicalein:AChE 2:1) was 14.57 ± 0.13%, the “β-Turn content of AChE” value (AChE [5]; molar ratio baicalein:AChE 2:1) was 21.42 ± 0.57% and the “Random coil content of AChE” value (AChE [5]; molar ratio baicalein:AChE 6:1) was 21.71 ± 0.47%. The “α-Helix content of AChE” value (AChE [5]; molar ratio baicalein:AChE 6:1) was 42.53 ± 0.35%, the “β-Sheet content of AChE” value (AChE [5]; molar ratio baicalein:AChE 6:1) was 7.73 ± 0.03% and the “β-Turn content of AChE” value (AChE [5]; molar ratio baicalein:AChE 6:1) was 28.15 ± 0.89%.

With `O=C(O)[C@H]1O[C@@H](Oc2cc3oc(-c4ccccc4)cc(=O)c3c(O)c2O)[C@H](O)[C@@H](O)[C@@H]1O` [baicalin, reference compound] the IC50 (AChE [1]) was 204 ± 16.5 µM.

Source: article PMC8774682, “Inhibitory Mechanism of Baicalein on Acetylcholinesterase: Inhibitory Interaction, Conformational Change, and Computational Simulation” (Foods, 2022)
